Measurements: patent US7893199B2, “Peptides having neutrophil-stimulating activity” (National University Corporation Gunma University, priority 2006, dated 2011)
Where no end group is shown, it is not given here.

Tests used:
[1] = molecular target: T1, heat shock 70 kDa protein 8 isoform 1 (SEQ ID NO: 52) (Homo sapiens, UniProt P11142); assay: chemical crosslinking experiment, streptavidin beads, electrophoresis (receptor identification); type: binding; conditions: differentiated HL-60 cells
T1 construct: endogenous in cells; host or cells: neutrophil-like differentiated HL-60 cells
Experimental: Then, in order to identify directly the receptor molecules to which these functional peptides are bound, the following chemical crosslinking experiment was performed. That is, the HL-60 cells differentiated into the neutrophil-like cells were suspended in HBHS (not containing 0.1% BSA). The suspension was centrifuged (1,000 rpm, 5 minutes, 4° C.) and the supernatant was removed. The cells were suspended again in the HBHS not containing BSA so as to have the cell density of 5.6×10^6 cells/ml. The obtained cell suspension was preincubated at 37° C. for 10 minutes at first, and 1/10 volume of mitocryptide-3 and -5, [Cys^0]mitocryptide-3, [Cys^0]mitocryptide-5, [Cys^24]mitocryptide-3, and peptides obtained by introducing biotin into the N terminals thereof (N-biotinyl-mitocryptide-3, N-biotinyl-mitocryptide-5, N-biotinyl-[Cys^0]mitocryptide-3, N-biotinyl-[Cys^0]mitocryptide-5, and N-biotinyl-[Cys^24]mitocryptide-3) were added to have the final concentration of 10 μM, followed by incubation at 37° C. for 30 minutes. After that, the cell suspension was centrifuged (5,000 rpm, 4° C., 1 minute) and the supernatant was removed. The resultant cells were resuspended in HBHS not containing BSA and centrifuged again to wash the cells. 1 ml of a buffer for dissolving cells (100 mM NaCl, 20 mM Tris-HCl, 1 mM EDTA, 77.5 mTIU/ml aprotinin, 1 μM leupeptin, 1 μg/ml pepstatin A, 1 μg/ml phosphoramidone, 1% CHAPS, pH 7.5) with respect to 1 ml of the original cell suspension was added to the cell precipitate, and the mixture was incubated at 4° C. for 30 minutes to dissolve the cells, thereby a cell lysate was prepared. The cell lysate was centrifuged (15,000 rpm, 4° C., 15 minutes) and the supernatant was centrifuged again in the same condition. The obtained supernatant was incubated with streptavidin beads at 4° C. for 30 minutes, then, the beads were washed by centrifugation with the buffer for dissolving cells three times. Further, the beads were treated by heat at 100° C. for 10 minutes in the buffer for dissolving cells, and the mixture was centrifuged. The obtained supernatant was subjected to an SDS gel electrophoresis to separate the contained protein. Then, the gel was stained by silver stain method, thereby the proteins were analyzed. […] As a result, two specific spots were detected (FIG. 15-A). Therefore, the protein was extracted and degraded with trypsin, and then, the degraded proteins were analyzed by mass spectrometry.

[2] = test system: HL-60 cells differentiated into the neutrophil-like cells; assay: β-hexosaminidase-secreting activity of neutrophil-like differentiated HL-60 cells; type: cell-based, human; conditions: differentiated HL-60 cells; read-out: EC50, β-hexosaminidase-secreting activity
In short: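 HL-60 cells were differentiated with 500 μM db-cAMP for 3 days at 37 °C, then stimulated with peptide for 10 min in HBHS/0.1% BSA, pH 7.4, containing 5 μg/ml cytochalasin B and DNase I. Released β-hexosaminidase was read at 405 nm after p-nitrophenyl-N-acetylglucosaminide hydrolysis (pH 4.5, 37 °C, 1 h). Secretion is expressed relative to 10 μM fMLP, with total enzyme from 0.05% Triton X-100 lysis.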

T1 sequence (P11142 whole entry, canonical isoform): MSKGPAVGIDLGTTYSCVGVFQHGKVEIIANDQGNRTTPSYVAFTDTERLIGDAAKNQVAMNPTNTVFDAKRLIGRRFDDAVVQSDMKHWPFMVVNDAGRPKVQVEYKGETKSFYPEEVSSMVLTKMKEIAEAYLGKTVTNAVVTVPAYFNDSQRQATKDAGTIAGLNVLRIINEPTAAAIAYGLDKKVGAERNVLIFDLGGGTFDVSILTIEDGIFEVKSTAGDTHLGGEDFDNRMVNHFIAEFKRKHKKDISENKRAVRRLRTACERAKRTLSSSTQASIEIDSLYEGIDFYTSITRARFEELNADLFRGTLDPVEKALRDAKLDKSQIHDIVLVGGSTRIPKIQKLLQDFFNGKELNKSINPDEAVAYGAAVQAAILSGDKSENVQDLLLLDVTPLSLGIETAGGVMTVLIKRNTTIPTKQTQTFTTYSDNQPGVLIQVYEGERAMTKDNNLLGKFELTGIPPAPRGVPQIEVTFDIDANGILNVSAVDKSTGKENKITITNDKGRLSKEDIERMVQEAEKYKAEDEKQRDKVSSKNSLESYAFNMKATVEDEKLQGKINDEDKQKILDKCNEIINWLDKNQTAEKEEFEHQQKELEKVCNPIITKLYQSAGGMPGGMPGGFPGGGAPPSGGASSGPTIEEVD

- competition for binding of the protein to N-biotinyl-[Cys^0]mitocryptide-5 [1]: competitive
- EC50 [2]: 200 nM
Sequence: MLWNLLALHQIGQRTISTASHRH [No. 019]
